Like-named read-outs stand apart in the source and are kept apart here.
Test: Pharmacokinetics and brain distribution after single oral dose, rats
Assay type: in vivo, male Sprague-Dawley rats
Conditions: for Kp at 6 h / concentration at 6 h / Cmax / Tmax / concentration at 1 h / concentration at 2 h / concentration at 4 h / concentration at 8 h / concentration at 12 h / AUC(0-inf) / half-life / concentration at 24 h: male, Sprague-Dawley, rat; for Kp at 6 h: po
Description: The pharmacokinetics and brain distribution in maleCD1 mice and Sprague-Dawley rats following a single oral (PO) dose was evaluated. The compound of formula (I) was administered once at 10 mg/kg to mice and at 1, 10, 30, and 100 mg/kg to rats. All doses, compound of formula (I) concentrations, and derived PK parameters are expressed as the free base of the compound of formula (I).
The in-life portion of these studies was performed by Alliance Pharma (Malvern, Pa.) according to Protocols 200107-02 (mice) and 1910158-02 (rats). Animals were assigned randomly to the dose groups and were fasted 12 hours prior to dosing. Water was available ad libitum. The compound of formula (I) (as an HCl salt) was given to male CD1 mice at 10 mg/kg single PO dose, while in Sprague-Dawley rats, the doses were 1, 10, 30, and 100 mg/kg. In both studies, the compound of formula (I) was formulated in 0.5% hydroxypropyl methylcellulose (HPMC)/0.2% Tween 80 and the dosing volume was 5 mL/kg for all dose groups.
Whole blood was collected at 2, 4, 6, and 12 hours post dose from mice and predose and 1, 2, 4, 8, 12, and 24 hours post dose from rats into tubes containing dipotassium ethylenediaminetetraacetic acid (K2EDTA). Blood was obtained from 3 mice and 4 rats per time-point per dose level. The blood samples were processed into plasma analyzed at Alliance Pharma using the method as described below.
The brain tissue was collected from mice at 2, 4, 6, and 12 hours post dose and was collected from rats at 6 hours post dose given 1, 10, 30, or 100 mg/kg of the compound of formula (I). Brain tissue was obtained from 3 mice per time-point at the 10 mg/kg dose level and 4 rats per dose level at the 6-hour post dose time-point.
Brain tissue was rinsed by phosphate-buffered saline (PBS) buffer immediately after harvest, weighed, and mixed with solvent (MeOH:H2O [volume over volume of 20:80]) with a ratio of tissue to solvent of 1:4 (weight over volume). […] After homogenization, the homogenate was aliquoted out for sample analysis.
The concentrations of the compound of formula (I) in the plasma and brain homogenate were determined versus a calibration curve prepared in plasma and naïve brain homogenate, respectively. Samples were deproteinized with acetonitrile containing tolbutamide as internal standard. After centrifugation, the supernatants were analyzed by liquid chromatography with tandem mass spectrometry (LC-MS/MS). Chromatography was performed with a Zorbax SB-C18 (50×2.1 mm, […]) column under gradient conditions described in Table 22. Mobile Phase A (0.1% formic acid [FA] in water) and Mobile Phase B (0.1% FA in acetonitrile) were delivered as a flow rate of 0.8 mL/min. LC-MS/MS was performed using a positive TurboIonSpray® interface on a SciexAPI 4000 and multiple-reaction monitoring (MRM) over a concentration range of 1 ng/mL to 1000 (rats) or 2000 (mice) ng/mL for the plasma and brain homogenate samples.
The mean plasma concentration-time data of the compound of formula (I) was used to determine the pharmacokineticparameters by standard noncompartmental methods using Phoenix® WinNonlin (version 8.2.0; Certara, Princeton, N.J.). Graphs were plotted in Prism® (version 2.3.0; GraphPad, San Diego, Calif.). Concentrations were rounded to 3 significant figures.

[1] = plasma, single PO 1 mg/kg (HCl salt, as free base)
[2] = plasma, single PO 10 mg/kg (HCl salt, as free base)
[3] = plasma, single PO 30 mg/kg (HCl salt, as free base)
[4] = plasma, single PO 100 mg/kg (HCl salt, as free base)

Molecule `CC(C)N1CCOc2c(F)cc(-c3nc(Nc4ccc(C5CCN(C)CC5)cn4)ncc3F)cc21` [Compound (I), 5-fluoro-4-(8-fluoro-4-isopropyl-3,4-dihydro-2H-benzo[b][1,4]oxazin-6-yl)-N-(5-(1-methylpiperidin-4-yl)pyridin-2-yl)pyrimidin-2-amine] has a Kp at 6 h (brain, 1 mg/kg, single PO 1 mg/kg, 6 h, read-out: Brain:Plasma Ratio) of 6.3, a Kp at 6 h (brain, 10 mg/kg, single PO 10 mg/kg, 6 h, read-out: Brain:Plasma Ratio) of 6.1 and a Kp at 6 h (brain, 30 mg/kg, single PO 30 mg/kg, 6 h, read-out: Brain:Plasma Ratio) of 11. The Kp at 6 h (brain, 100 mg/kg, 6 hours post-dose, each dose level (1, 10, 30, 100 mg/kg PO), read-out: Brain-to-plasma concentration ratio) was > 6, the Kp at 6 h (brain, 100 mg/kg, single PO 100 mg/kg, 6 h, read-out: Brain:Plasma Ratio) was 12 and the concentration at 6 h (brain, single PO 1 mg/kg, 6 h, read-out: Brain Conc) was 58.9 ng/mL. It also gave a concentration at 6 h (brain, single PO 10 mg/kg, 6 h, read-out: Brain Conc) of 548 ng/mL, a concentration at 6 h (brain, single PO 30 mg/kg, 6 h, read-out: Brain Conc) of 1970 ng/mL and a concentration at 6 h (brain, single PO 100 mg/kg, 6 h, read-out: Brain Conc) of 2800 ng/mL. It also gave a Cmax (plasma, single PO 1 mg/kg) of 9.37 ng/mL, a Tmax (plasma, single PO 1 mg/kg) of 6 h and a concentration at 1 h [1] of 1.52 ng/mL. It also gave a concentration at 2 h [1] of 2.41 ng/mL, a concentration at 4 h [1] of 4.91 ng/mL and a concentration at 6 h (plasma, single PO 1 mg/kg (HCl salt, as free base), 6 h, read-out: Mean Plasma Concentration) of 9.37 ng/mL. The concentration at 8 h [1] was 6.42 ng/mL, the concentration at 12 h [1] was 4.64 ng/mL and the AUC(0-inf) (plasma, single PO 10 mg/kg) was 1080 ng·h/mL. It also gave a Cmax (plasma, single PO 10 mg/kg) of 90.4 ng/mL, a Tmax (plasma, single PO 10 mg/kg) of 6 h and a half-life (plasma, single PO 10 mg/kg) of 7.54 h. For the same molecule, the concentration at 1 h [2] was 8.45 ng/mL, the concentration at 2 h [2] was 25.9 ng/mL and the concentration at 4 h [2] was 51.6 ng/mL. It also gave a concentration at 6 h (plasma, single PO 10 mg/kg (HCl salt, as free base), 6 h, read-out: Mean Plasma Concentration) of 90.4 ng/mL, a concentration at 8 h [2] of 52.5 ng/mL and a concentration at 12 h [2] of 46.3 ng/mL. The concentration at 24 h (plasma, single PO 10 mg/kg (HCl salt, as free base), 24 h) was 12.9 ng/mL, the AUC(0-inf) (plasma, single PO 30 mg/kg) was 3870 ng·h/mL and the Cmax (plasma, single PO 30 mg/kg) was 180 ng/mL. The Tmax (plasma, single PO 30 mg/kg) was 6 h, the half-life (plasma, single PO 30 mg/kg) was 13.4 h and the concentration at 1 h [3] was 43.2 ng/mL. The concentration at 2 h [3] was 73.1 ng/mL, the concentration at 4 h [3] was 136 ng/mL and the concentration at 6 h (plasma, single PO 30 mg/kg (HCl salt, as free base), 6 h, read-out: Mean Plasma Concentration) was 180 ng/mL. The concentration at 8 h [3] was 155 ng/mL, the concentration at 12 h [3] was 117 ng/mL and the concentration at 24 h (plasma, single PO 30 mg/kg (HCl salt, as free base), 24 h) was 66.4 ng/mL. For the same molecule, the Cmax (plasma, single PO 100 mg/kg) was 243 ng/mL, the Tmax (plasma, single PO 100 mg/kg) was 6 h and the concentration at 1 h [4] was 81.2 ng/mL. It also gave a concentration at 2 h [4] of 142 ng/mL, a concentration at 4 h [4] of 151 ng/mL and a concentration at 6 h (plasma, single PO 100 mg/kg (HCl salt, as free base), 6 h, read-out: Mean Plasma Concentration) of 243 ng/mL. It also gave a concentration at 8 h [4] of 170 ng/mL, a concentration at 12 h [4] of 193 ng/mL and a concentration at 24 h (plasma, single PO 100 mg/kg (HCl salt, as free base), 24 h) of 224 ng/mL. For the same molecule, the “Mean Plasma Concentration” value (single PO 1 mg/kg (HCl salt, as free base), 24 h) was “BQL”.
